In the case of `CCc1cc(Nc2ccc(Sc3ccncc3)cc2)nc(N)n1` [Example 42, N-(2-amino-6-ethyl-4-pyrimidinyl)-N-[4-(4-pyridinylsulfanyl)phenyl]amine], the melting point is reported as 181 to 186 °C.

— US6943172B2, “Rho-kinase inhibitors” (Bayer Pharmaceuticals Corporation, priority 2002, dated 2005)
